Assay results published in patent publication US20160299149A1, “ASSAYS AND METHODS FOR CELL PROLIFERATION-TARGETED TREATMENT THERAPIES” (University of Central Florida Research Foundation, Inc., priority 2015, published 2016).

Key:
[1] = Polyamine transport inhibitor assay 2: PTI blocks uptake of rescuing spermidine into DFMO-treated cells; assay type: cell-based; details: DFMO dosed at its IC50; Spd 1 μM; PTI not above its IC10; relative to untreated control; read-out: cell viability
Description: FIG. 6A is a diagram showing an assay wherein the uptake of rescuing dose of spermidine into DFMO-treated cells is blocked by a PTI (GW 5074).
(§1) DFMO was dosed to give 50% relative viability versus an untreated control, i.e. DFMO is dosed at its IC50 value. Exogenous spermidine (Spd, 1 μM) is added to the DFMO treated cells and provided significant rescue of these cells to >80% viability depending upon the cell line. A successful PTI was able to block the entry of the spermidine rescuing agent into DFMO treated cells and result in a cell viability near the DFMO control (i.e. 50% viability). The inventors identified the following cell viabilities: DFMO only (50%), Spd only (100%), PTI (>90%), DFMO+Spd (>80%), DFMO+Spd+PTI (50%). The PTI provides a dose dependent lowering of cell viability in the presence of DFMO and a rescuing dose of spermidine. […] Identifying cells that respond to exogenous spermidine allow this assay to be possible and the c-myc and ATP13A3 biomarkers help predict these outcomes as well as the Vmax measurements for ^3H Spd import.

[2] = tested on: L3.6pl, Panc1, CHO and PanO2 cells; assay: Cell line sensitivity to DFMO and spermidine rescue challenge; assay type: cell-based; details: cells dosed with IC50 dose of DFMO, spermidine 1 μM, read-out: viability level after rescue by exogenous spermidine
[3] = tested on: MALME-3M cells and MALME-3 control cells; assay: Spermidine competition / percent viability with compound A; assay type: cell-based; details: 100 μM; MALME-3M and MALME-3
Description: Aminoguanidine (AG) at 1 mM was determined to be non-toxic and was incubated with cells for 24 h prior to compound addition. Control represents the untreated cells. All experiments were performed in triplicate. Spermidine (Spd, 100 μM) was non-toxic to both cell lines. […] Compound A is a valid polyamine transport probe.

AspC-1 [4] = assay: 3H Spd import Vmax, untreated cells; assay type: cell-based, human
Excerpt: (§2) FIG. 10 is a table providing the Relative Protein expression of Cav-1, ATP13A3 and c-myc in human pancreatic cancer cell lines along with the respective Vmax values for ^3H spermidine (Spd) import and the relative affinity Km values determined for spermidine. Entries represent 100%×protein expression/beta actin expression as shown in FIG. 10 along with the Vmax value already provided. The Western blots were quantified by Image J software (NIH) and normalized by dividing by the beta-actin expression level for each cell line. Entries represent protein expression and are expressed in relative %, with the L3.6pl cell expression levels set to 100%.
(§3) FIG. 10 provides a table showing the relative protein expression of Cav-1, ATP13A3 and c-myc in human pancreatic cancer cell lines (normalized by dividing by the relative beta actin expression level) along with the respective Vmax values for ^3H Spd import and Km values. The entries represent 100%×protein expression/beta actin expression is shown in the table along with the Vmax and Km values reported earlier. As mentioned earlier, a strong correlation was found between ATP13A3 expression and the ability of DFMO-treated cells to be rescued by exogenous spermidine (FIG. 8, rightmost column).

BxPC-3 [5] = assay: 3H Spd import Vmax, untreated cells; assay type: cell-based, human
Excerpt: as §2, §3

Capan-1 [6] = assay: 3H Spd import Vmax, untreated cells; assay type: cell-based, human
Excerpt: as §2, §3

HPNE [7] = assay: 3H Spd import Vmax, untreated cells; assay type: cell-based, human
Excerpt: as §2, §3

L3.6pl [8] = assay: 3H Spd import Vmax, untreated cells; assay type: cell-based, human
Excerpt: as §2, §3

Panc-1 [9] = assay: 3H Spd import Vmax, untreated cells; assay type: cell-based, human
Excerpt: as §2, §3

SU86.86 [10] = assay: 3H Spd import Vmax, untreated cells; assay type: cell-based, human
Excerpt: as §2, §3

AspC-1 [11] = assay: Spermidine rescue of DFMO-treated cells; assay type: cell-based, human; details: DFMO-treated AspC-1 cells
Description: (§4) FIG. 8 provides an illustration and a table showing different cell line sensitivity to DFMO and spermidine rescue challenge. The rescue challenge experiment doses cells with the respective IC50 dose of DFMO for that cell line and measures the viability of cells with and without added spermidine (1 μM). Cell lines without added spermidine give the expected 50% viability due to the presence of DFMO. […] These are highlighted in red. Cell lines with low polyamine transport activity are not rescued to a significant extent even though a rescuing dose of spermidine is available and give viabilities near 50%.
as §1

BxPC-3 [12] = assay: Spermidine rescue of DFMO-treated cells; assay type: cell-based, human; details: DFMO-treated BxPC-3 cells
Description: as §4, §1

Capan-1 [13] = assay: Spermidine rescue of DFMO-treated cells; assay type: cell-based, human; details: DFMO-treated Capan-1 cells
Description: as §4, §1

HPNE [14] = assay: Spermidine rescue of DFMO-treated cells; assay type: cell-based, human
Description: as §4, §1

L3.6pl [15] = assay: Spermidine rescue of DFMO-treated cells; assay type: cell-based, human; details: DFMO-treated L3.6pl cells
Description: as §4, §1

Panc-1 [16] = assay: Spermidine rescue of DFMO-treated cells; assay type: cell-based, human; details: DFMO-treated Panc-1 cells
Description: as §4, §1

SU86.86 [17] = assay: Spermidine rescue of DFMO-treated cells; assay type: cell-based, human; details: DFMO-treated SU86.86 cells
Description: as §4, §1

Compound: NCCCCNCCCN [Spermidine, spermidine]
- viability at 1 μM [1]: 100%
- viability at 1 μM [2]: > 80%
- toxicity to both cell lines [3]: non-toxic
- Vmax of ^3H Spd untreated cells (AspC-1 [4]): 2.3 nmoles Spd/mg protein/min
- Vmax of ^3H Spd untreated cells (BxPC-3 [5]): 9.0 nmoles Spd/mg protein/min
- Vmax of ^3H Spd untreated cells (Capan-1 [6]): 0.8 nmoles Spd/mg protein/min
- Vmax of ^3H Spd untreated cells (HPNE [7]): 1.8 nmoles Spd/mg protein/min
- Vmax of ^3H Spd untreated cells (L3.6pl [8]): 24 nmoles Spd/mg protein/min
- Vmax of ^3H Spd untreated cells (Panc-1 [9]): 13 nmoles Spd/mg protein/min
- Vmax of ^3H Spd untreated cells (SU86.86 [10]): 7.0 nmoles Spd/mg protein/min
- Spd rescue index (AspC-1 [11]): Not rescuable
- Spd rescue index (BxPC-3 [12]): low
- Spd rescue index (Capan-1 [13]): Not rescuable
- Spd rescue index (HPNE [14]): very low
- Spd rescue index (L3.6pl [15]): high
- Spd rescue index (Panc-1 [16]): med
- Spd rescue index (SU86.86 [17]): med
